According to patent US20130217722A1, “NOVEL COMPOUND USEFUL FOR THE TREATMENT OF DEGENERATIVE AND INFLAMMATORY DISEASES” (priority 2012, published 2013):

Columns and labels:
[1] = biological target: T1, Recombinant human TYK2 catalytic domain (Homo sapiens, UniProt P29597); assay: TYK2 inhibition assay (polyGT substrate); format: biochemical
T1 construct: Recombinant human TYK2 catalytic domain (amino acids 871-1187; catalog number 08-147) was purchased from Carna biosciences; purchased Carna Biosciences 08-147
T1 sequence (P29597 871-1187): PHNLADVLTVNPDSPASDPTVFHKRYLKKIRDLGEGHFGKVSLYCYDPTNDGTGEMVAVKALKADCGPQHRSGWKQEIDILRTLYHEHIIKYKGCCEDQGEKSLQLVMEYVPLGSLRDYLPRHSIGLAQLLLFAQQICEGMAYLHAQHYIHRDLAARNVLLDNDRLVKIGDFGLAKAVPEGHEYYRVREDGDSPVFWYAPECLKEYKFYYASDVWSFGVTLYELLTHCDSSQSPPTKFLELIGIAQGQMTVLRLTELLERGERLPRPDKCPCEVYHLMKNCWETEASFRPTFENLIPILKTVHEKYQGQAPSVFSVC
Procedure: Recombinant human TYK2 catalytic domain (amino acids 871-1187; catalog number 08-147) was purchased from Carna biosciences. 5 ng of TYK2 was incubated with 12.5 μg polyGT substrate (Sigma catalog number P0275) in kinase reaction buffer (25 mM Hepes pH 7.2, 50 mM NaCl, 0.5 mM EDTA, 1 mM DTT, 5 mM MnCl2, 10 mM MgCl2, 0.1% Brij-35, 0.1 μM non-radioactive ATP, 0.125 μCi ^33P-gamma-ATP (GE Healthcare, catalog number AH9968) final concentrations) with or without 5 μL containing test compound or vehicle (DMSO, 1% final concentration), in a total volume of 25 μL, in a polypropylene 96-well plate (Greiner, V-bottom). After 90 min at 30° C., reactions were stopped by adding 25 μL/well of 150 mM phosphoric acid. […] 40 ^μL/well of Microscint-20 was added, the top of the plates was sealed and readout was performed using the Topcount (Perkin Elmer). Kinase activity was calculated by subtracting counts per min (cpm) obtained in the presence of a positive control inhibitor (10 μM staurosporine) from cpm obtained in the presence of vehicle. The ability of a test compound to inhibit this activity was determined as:
Percentage inhibition=((cpm determined for sample with test compound present−cpm determined for sample with positive control inhibitor) divided by (cpm determined in the presence of vehicle−cpm determined for sample with positive control inhibitor))*100. […]

JAK1 = biological target: T2, JAK1 (Homo sapiens, UniProt P23458); assay: JAK1 Ki determination assay; format: biochemical; conditions: Lineweaver-Burk, varying ATP; read-out: Ki against JAK1
T2 construct: Recombinant human JAK1 (catalytic domain, amino acids 866-1154; catalog number PV4774) was purchased from Invitrogen; purchased Invitrogen PV4774
T2 sequence (P23458 866-1154): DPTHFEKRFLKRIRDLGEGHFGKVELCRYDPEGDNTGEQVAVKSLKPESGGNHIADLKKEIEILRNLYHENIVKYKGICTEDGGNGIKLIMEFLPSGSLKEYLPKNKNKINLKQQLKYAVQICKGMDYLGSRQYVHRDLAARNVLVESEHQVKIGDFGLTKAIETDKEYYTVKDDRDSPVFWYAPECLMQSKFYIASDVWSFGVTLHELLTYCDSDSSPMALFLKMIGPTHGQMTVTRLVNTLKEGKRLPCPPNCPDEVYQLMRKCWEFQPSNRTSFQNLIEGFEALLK
Procedure: For the determination of Ki, different amounts of compound were mixed with the enzyme and the enzymatic reaction was followed as a function of ATP concentration. The Ki was determined by means of double reciprocal plotting of Km vs compound concentration (Lineweaver-Burk plot). 1 ng of JAK1 (Invitrogen, PV4774) is used in the assay. The substrate was 50 nM Ulight-JAK-1 (Tyr1023) Peptide (Perkin Elmer, TRF0121) The reaction is performed in 25 mM MOPS pH 6.8, 0.01%, 2 mM DTT, 5 mM MgCl2 Brij-35 with varying concentrations of ATP and compound. Phosphorylated substrate was measured using an Eu-labeled anti-phosphotyrosine antibody PT66 (Perkin Elmer, AD0068) as described in 1.1.2. Readout was performed on the envision (Perkin Elmer) with excitation at 320 nm and emission followed at 615 nm and 665 nm.

JAK1 selectivity vs TYK2 [1]: 9 fold
Ki (JAK1): 3.69 nM
Structure (SMILES): CCc1cc(C2=CCN(C(=O)CC#N)CC2)ccc1N(C)c1cc2c(cn1)ncn2C [Compound 1]
